Source: the OligoGym collection
After the bases stand the sugars from the 5' end (letter, count) and the backbone: PS all phosphorothioate, else s phosphorothioate and o phosphodiester by linkage. Methylation of C is not given here. l = locked nucleic acid (LNA); d = 2'-deoxy (DNA)

Target: SNHG14
Settings: ASO
[1] = Mouse Primary Neuronal Cell, 0.005 µM

Sequence | target mRNA inhibition (Human Neuronal Cell, 7.5 µM) | target mRNA inhibition (Human Neuronal Cell, 0.2 µM) | target mRNA inhibition (Human Neuronal Cell, 1 µM) | also measured
TTTATTTCCATTTATTTTCA (sugars ldddlldddddddddlldll, PS) | 65% |  |  | 
ACCCATTTCTAACATT (sugars l4 d10 l2, PS) |  | 29% | 40% | 
TTATCATTTCATATTACT (sugars l4 d12 l2, PS) |  | 16% | 34% | 
TTACCTACATCTCATAC (sugars l2 d13 l2, PS) |  | 1% | -8% | target mRNA inhibition (Human Neuronal Cell, 5 µM): 19%; target mRNA inhibition [1]: 79%
TTATAGCCATTCTATCT (sugars ldddlddddddldllll, PS) | 26% |  |  | 
GCATTAGGCACATTACAT (sugars l3 d12 l3, PS) |  | -8% | 2% | target mRNA inhibition (Human Neuronal Cell, 5 µM): 15%
AGTTCTACTATACTTTCC (sugars l1 d4 l1 d10 l2, PS) | 49% |  |  | 
TTCTGTATACACCATCC (sugars l1 d12 l1 d1 l2, PS) | 62% |  |  | 
TACTCTGCAATACACC (sugars l2 d1 l2 d9 l2, PS) | 64% |  |  | 
AGTTCTACTATACTTTCC (sugars l1 d15 l2, PS) | 11% |  |  | 
CATTCAACCCTAATCA (sugars l3 d10 l3, PS) |  | 26% | 38% | 
ATATAAGCTTACCTCA (sugars l4 d10 l2, PS) |  | 56% | 68% | 
TCTTTCCATTTATTTCCAT (sugars l2 d13 l1 d1 l2, PS) | 42% |  |  | 
ACTGTTTATACCCTTTC (sugars l2 d10 l1 d2 l2, PS) | 60% |  |  | 
ATCATTCTCAACAATTAA (sugars l4 d8 l6, PS) | 44% |  |  | 
TTTATCAATATCTTCTCACT (sugars lddldldddddddddddlll, PS) | 57% |  |  | 
TTATTTCCATTTATTTTCA (sugars ldlldddddddddlddlll, PS) | 68% |  |  | 
TGTTTATACCCTTTCCAA (sugars ldddldddddddddldll, PS) | 58% |  |  | 
TACATCTCATACTTGC (sugars l3 d10 l3, PS) |  | 4% | -2% | target mRNA inhibition (Human Neuronal Cell, 5 µM): 12%; target mRNA inhibition [1]: 97.4%
ATATTGATTCAATTCCC (sugars l1 d2 l1 d7 l6, PS) | 51% |  |  | 
GAAAATCTCAACTACCATT (sugars l4 d10 l2 d1 l2, PS) | 60% |  |  | 
ATCATTCTCAACAATTA (sugars l4 d7 l1 d1 l4, PS) | 53% |  |  | 

Sequence | target mRNA inhibition (Human Neuronal Cell, 7.5 µM) | target mRNA inhibition (Human Neuronal Cell, 0.2 µM) | target mRNA inhibition (Human Neuronal Cell, 1 µM) | also measured
TTATAGCCATTCTATCT (sugars lddllddddddldddll, PS) | 50% |  |  | 
TCCAAACTGTCTTCTAA (sugars l3 d12 l2, PS) |  | 36% | 23% | 
TATCTTTCCATTTATTTCC (sugars l2 d12 l1 d2 l2, PS) | 44% |  |  | 
GATCATTCTCAACAATTA (sugars ldllldddddddldldll, PS) | 35% |  |  | 
TTCACCAGTATTTCTTC (sugars l4 d11 l2, PS) |  | 36% | 32% | 
AAAATCTCAACTACCATTTT (sugars lllldldddddddlddllll, PS) | 14% |  |  | 
TACACAAATACTTAAATCA (sugars l4 d13 l2, PS) |  | 7% | 19% | 
TCCAACATAGATCCTCT (sugars l2 d11 l4, PS) |  | 45% | 55% | 
CATTCTATCTGCCAAA (sugars l2 d10 l4, PS) |  | 55% | 64% | 
AAGATCATTCTCAACA (sugars l4 d10 l2, PS) |  | 60% | 67% | 
GAAAATCTCAACTACCATT (sugars l3 d1 l1 d10 l4, PS) | 57% |  |  | 
AAATTATTTATACACCATCA (sugars ldddlldddddddldldlll, PS) | 67% |  |  | 
TATACCTTTCTTTAACCCTT (sugars l1 d15 l1 d1 l2, PS) | 58% |  |  | 
TATTGATTCAATTCCCT (sugars l1 d12 l4, PS) | 57% |  |  | 
ACATCTCATACTTGCTT (sugars l2 d11 l4, PS) |  | -4% | 7% | target mRNA inhibition (Human Neuronal Cell, 5 µM): 9%; target mRNA inhibition [1]: 96%
TTCTGTATACACCATCCC (sugars l1 d11 l1 d3 l2, PS) | 54% |  |  | 
TACTCTGCAATACACCA (sugars l2 d11 l4, PS) |  | 57% | 71% | 
TTATAGCCATTCTATCT (sugars l2 d2 l1 d10 l2, PS) | 64% |  |  | 
CTCCTTTATGACTCCA (sugars l3 d11 l2, PS) |  | 50% | 56% | 
TTTTATACCTTTCTTTAACC (sugars l1 d15 l1 d1 l2, PS) | 24% |  |  | 
TATTCTCAATTGCACTT (sugars l4 d11 l2, PS) |  | 46% | 61% | 
AAATTATTTATACACCATCA (sugars ldllllddddddddldldll, PS) | 70% |  |  | 

Sequence | target mRNA inhibition (Human Neuronal Cell, 7.5 µM) | target mRNA inhibition (Human Neuronal Cell, 0.2 µM) | target mRNA inhibition (Human Neuronal Cell, 1 µM) | also measured
TTTACACTTAATTATACTTC (sugars llldlddddddddlddllll, PS) | 55% |  |  | 
GACCTCAATACTCTAC (sugars l4 d10 l2, PS) |  | 37% | 44% | 
CCATTTATTTCCATTTATTT (sugars ldddldddddddddldldll, PS) | 56% |  |  | 
TTTATACCTTTCTTTAAC (sugars l2 d12 l4, PS) |  | 4% | 21% | 
TTATAGCCATTCTATCT (sugars l2 d1 l2 d10 l2, PS) | 64% |  |  | 
CCTACATCTCATACTTGC (sugars l3 d12 l3, PS) |  | -39% | -21% | target mRNA inhibition (Human Neuronal Cell, 5 µM): -27%
AGCAACATTATTAACCACC (sugars lddddlddddddlldddll, PS) | 45% |  |  | 
GACCACACTTTCTACC (sugars l2 d12 l2, PS) |  | 18% | 42% | 
TATAGCCATTCTATCT (sugars l4 d10 l2, PS) |  | 61% | 67% | 
TTGATTCAATTCCCTTA (sugars lddlldddddddlldll, PS) | 66% |  |  | 
AGCAACATTATTAACCAC (sugars l2 d1 l1 d9 l5, PS) | 61% |  |  | 
CTGTATACACCATCCCA (sugars l1 d10 l1 d3 l2, PS) | 54% |  |  | 
TTTACACTTAATTATACTTC (sugars lldddldddddddlllldll, PS) | 51% |  |  | 
TTGATTCAATTCCCTTA (sugars l2 d10 l1 d1 l3, PS) | 68% |  |  | 
ATCTCATGACCACCTAA (sugars l1 d12 l4, PS) | 48% |  |  | 
TATTGATTCAATTCCCT (sugars l1 d10 l1 d2 l3, PS) | 65% |  |  | 
CTTCACACCTATTATATA (sugars l2 d12 l4, PS) |  | 7% | 32% | 
TCTGTATACACCATCCCA (sugars lddddlddddddddldll, PS) | 61% |  |  | 
TCTTTCCATTTATTTCCATT (sugars l2 d14 l1 d1 l2, PS) | 46% |  |  | 
TTTACACTTAATTATACTTC (sugars lllddldddddddllldlll, PS) | 22% |  |  | 
